Data published in US9833506B2, “Vaccine—screening method” (priority 2011, dated 2017).
Where two headings read alike, the source gives them in different places.

How the values were obtained:
Type in all cases: cell-based, human
[1] = test system: T cells in PBMC of H1N1 (A/Brisbane/59/07) challenge study subjects; details: for SFC/million PBMC (range): IFN-γ ELISPOT, peptide 2 μg/ml, 300,000 PBMC/well, background subtracted; for Positive no(%): percent of subjects responding to the peptide at baseline; for Positive no: subjects responding to the peptide at baseline, of 7 subjects
[2] = test system: T cells in PBMC of H3N2 (A/Wisconsin/67/05) challenge study subjects; details: for SFC/million PBMC (range): IFN-γ ELISPOT, peptide 2 μg/ml, 300,000 PBMC/well, background subtracted; for SFC/million PBMC (range) / CD4 or CD8 dependency: baseline samples; for CD4 or CD8 dependency: second ELISPOT after CD8 depletion, 4 = CD4, 8 = CD8; for Number positive (%): percent of subjects responding to the peptide at baseline; for Number positive: subjects responding to the peptide at baseline, of 8 subjects with peptides identified
[3] = test system: CD4+ T cell lines killing peptide pulsed autologous EBV-transformed B cell lines; assay: Chromium release assay, perforin-dependent cytotoxicity of CD4+ T cell lines; details: CD4+ T cells incubated 2 h with 100 nM concanamycin; 51Cr release; FIG. 7b
[4] = baseline samples, second ELISPOT after CD8 depletion, 4 = CD4, 8 = CD8

| Molecule | SFC/million PBMC (range) [2] | CD4 or CD8 dependency [2] | Number positive (%) [2] [%] | Number positive [2] | also measured |
| --- | --- | --- | --- | --- | --- |
| GENGRKTRIAYERMCNIL [NP27] | – | – | – | – | CD4 or CD8 dependency [1]: 8; SFC/million PBMC, days after challenge 7 [1]: 157 SFC/million PBMC; SFC/million PBMC, days after challenge 28 [1]: 10 SFC/million PBMC; SFC/million PBMC, days after challenge −2 [1]: 30 SFC/million PBMC; SFC/million PBMC (range) ([1]; baseline samples): 30 SFC/million PBMC; CD4 or CD8 dependency [1, 4]: 8; Positive no(%) [1]: 14%; Positive no [1]: 1 |
| IAYERMCNILKGKFQTAA (Influenza A virus) [NP28, synthetic peptide of H1N1 influenza A NP protein, amino acid position 217-234] | – | – | – | – | CD4 or CD8 dependency [1]: 8; SFC/million PBMC, days after challenge 7 [1]: 67 SFC/million PBMC; SFC/million PBMC, days after challenge 28 [1]: 10 SFC/million PBMC; SFC/million PBMC, days after challenge −2 [1]: 40 SFC/million PBMC; SFC/million PBMC (range) ([1]; baseline samples): 40 SFC/million PBMC; CD4 or CD8 dependency [1, 4]: 8; Positive no(%) [1]: 14%; Positive no [1]: 1 |
| TFSVQRSLPFEKSTIMAA [NP58] | 10 SFC/million PBMC | 4 | 13 | 1 | – |
| VKLYRKLKREITFHGAKE (Influenza A virus) [Peptide M13, synthetic peptide of H1N1 influenza A M protein, amino acid position 97-114] | – | – | – | – | CD4 or CD8 dependency [1]: 4; SFC/million PBMC, days after challenge 7 [1]: 70 SFC/million PBMC; SFC/million PBMC, days after challenge 28 [1]: 10 SFC/million PBMC; SFC/million PBMC, days after challenge −2 [1]: 30 SFC/million PBMC; SFC/million PBMC (range) ([1]; baseline samples): 41 (30-52) SFC/million PBMC; CD4 or CD8 dependency [1, 4]: 4; Positive no(%) [1]: 28%; CD4 or CD8 dependency ([1]; subject B017(2C)): 4; SFC/million PBMC, days after challenge 7 ([1]; subject B017(2C), day 7): 316 SFC/million PBMC; SFC/million PBMC, days after challenge 28 ([1]; subject B017(2C), day 28): 33 SFC/million PBMC; SFC/million PBMC, days after challenge −2 ([1]; subject B017(2C), day −2): 52 SFC/million PBMC; Positive no [1]: 2 |
| TYQRTRAVLRTGMDPRM (TYQRTRALVRTGMDPRM; Influenza A virus) [NP21, synthetic peptide of H3N2 influenza A NP protein, amino acid position 147-163] | 331 SFC/million PBMC | 8 | 13 | 1 | – |
| EIRASVGKMIDGIGRFYI [NP05] | 141.5 (35-248) SFC/million PBMC | 4 | 26 | 2 | – |
| GQTSVQPTFSVQRNLPF [NP57] | 10 SFC/million PBMC | 4 | 13 | 1 | – |
| C/C=C/[C@H]1O[C@@](O)([C@@H](C)[C@H](O)[C@H](C)[C@H]2OC(=O)/C(OC)=C/C(C)=C/[C@@H](C)[C@@H](O)[C@@H](CC)[C@@H](O)[C@H](C)C/C(C)=C/C=C/[C@@H]2OC)C[C@@H](O)[C@@H]1C [concanamycin] | – | – | – | – | Sensitivity of CD4 T cell killing of autologous target cells to concanamycin [3]: sensitive |
| IKHENRMVLASTTAKAM (Influenza A virus) [Peptide M25, synthetic peptide of H3N2 influenza A M protein, amino acid position 173-189] | 118 SFC/million PBMC | 4 | 13 | 1 | – |
| QPTFSVQRNLPFDKTTIM [NP52] | – | – | – | – | SFC/million PBMC (range) ([1]; baseline samples): 26 SFC/million PBMC; CD4 or CD8 dependency [1, 4]: 4; Positive no(%) [1]: 14%; CD4 or CD8 dependency ([1]; subject B017(2C)): 4; SFC/million PBMC, days after challenge 7 ([1]; subject B017(2C), day 7): 76 SFC/million PBMC; SFC/million PBMC, days after challenge 28 ([1]; subject B017(2C), day 28): 10 SFC/million PBMC; SFC/million PBMC, days after challenge −2 ([1]; subject B017(2C), day −2): 26 SFC/million PBMC; Positive no [1]: 1 |
| GKWMRELVLYDKEEIRRI [NP15] | 93 (45-141) SFC/million PBMC | 4 | 26 | 2 | – |
| HRSHRQMVATTNPLIKH [Peptide M23] | 158 SFC/million PBMC | 4 | 13 | 1 | – |
| LKREITFHKAKEIALSY [Peptide M15] | 67 (35-96) SFC/million PBMC | 4 | 38 | 3 | – |
| KFQTAAQRAMVDQVRESR (Influenza A virus) [NP32, synthetic peptide of H3N2 influenza A NP protein, amino acid position 229-246] | 104 SFC/million PBMC | 8 | 13 | 1 | – |
| KLSDHEGRLIQNSLTIEK [NP08] | 26 SFC/million PBMC | 4 | 13 | 1 | – |
| SNLNDATYQRTRALVR (Influenza A virus) [NP20, synthetic peptide of H3N2 influenza A NP protein, amino acid position 141-156] | 391 SFC/million PBMC | 8 | 13 | 1 | – |
| RMVLSAFDERRNKYLEEH (Influenza A virus) [NP09, synthetic peptide of H1N1 influenza A NP protein, amino acid position 65-82] | – | – | – | – | CD4 or CD8 dependency [1]: 4; SFC/million PBMC, days after challenge 7 [1]: 187 SFC/million PBMC; SFC/million PBMC, days after challenge 28 [1]: 113 SFC/million PBMC; SFC/million PBMC, days after challenge −2 [1]: 38 SFC/million PBMC; SFC/million PBMC (range) ([1]; baseline samples): 38 SFC/million PBMC; CD4 or CD8 dependency [1, 4]: 4; Positive no(%) [1]: 14%; Positive no [1]: 1 |
| PIYRRVDGKWMRELVLY [NP14] | 113 (45-181) SFC/million PBMC | 4 | 26 | 2 | – |
